Reference: patent publication US20220241402A1, “COMBINATION OF HEPATITIS B VIRUS (HBV) VACCINES AND QUINAZOLINE DERIVATIVES” (Janssen Sciences Ireland Unlimited Company, priority 2019, published 2022)

What was measured:
human TLR7 = biological target: T1, human TLR7 (Homo sapiens, UniProt Q9NYK1); experiment: TLR7 cellular NFκB-luc reporter assay; type: cell-based; design: unit not given here; conditions: lowest effective concentration; HEK293 cells transiently transfected with TLR7 and NFκB-luc, 6 h incubation
T1 construct: expressed in transfected cells; host or cells: HEK293
T1 sequence (Q9NYK1 27-1049): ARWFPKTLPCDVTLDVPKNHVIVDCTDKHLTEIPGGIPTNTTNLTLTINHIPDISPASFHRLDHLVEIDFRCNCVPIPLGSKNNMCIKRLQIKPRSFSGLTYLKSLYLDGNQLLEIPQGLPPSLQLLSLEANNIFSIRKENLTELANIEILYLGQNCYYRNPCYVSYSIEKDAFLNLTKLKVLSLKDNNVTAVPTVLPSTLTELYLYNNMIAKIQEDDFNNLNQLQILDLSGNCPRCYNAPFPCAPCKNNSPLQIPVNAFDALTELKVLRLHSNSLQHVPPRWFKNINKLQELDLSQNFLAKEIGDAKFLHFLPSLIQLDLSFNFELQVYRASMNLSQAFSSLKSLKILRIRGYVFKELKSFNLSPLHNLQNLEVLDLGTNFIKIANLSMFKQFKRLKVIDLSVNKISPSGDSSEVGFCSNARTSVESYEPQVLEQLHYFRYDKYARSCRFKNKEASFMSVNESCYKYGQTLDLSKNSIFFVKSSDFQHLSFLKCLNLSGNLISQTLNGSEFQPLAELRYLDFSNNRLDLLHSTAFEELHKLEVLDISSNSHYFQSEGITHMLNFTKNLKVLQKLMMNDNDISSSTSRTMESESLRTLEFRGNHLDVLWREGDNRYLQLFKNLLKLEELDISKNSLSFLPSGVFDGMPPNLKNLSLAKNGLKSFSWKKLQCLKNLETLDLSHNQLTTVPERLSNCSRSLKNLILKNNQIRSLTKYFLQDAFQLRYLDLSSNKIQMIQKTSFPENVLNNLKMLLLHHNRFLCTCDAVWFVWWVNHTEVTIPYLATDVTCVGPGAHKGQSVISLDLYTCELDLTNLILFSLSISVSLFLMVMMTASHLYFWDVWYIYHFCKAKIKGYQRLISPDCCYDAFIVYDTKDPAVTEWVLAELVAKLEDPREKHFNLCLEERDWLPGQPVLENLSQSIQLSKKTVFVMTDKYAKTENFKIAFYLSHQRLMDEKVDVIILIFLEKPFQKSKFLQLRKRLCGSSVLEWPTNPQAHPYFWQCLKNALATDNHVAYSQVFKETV
Experimental: (§1) The ability of compounds to activate human TLR7 and/or TLR8 was assessed in a cellular reporter assay using HEK293 cells transiently transfected with a TLR7 or TLR8 expression vector and NFκB-luc reporter construct. In one instance, the TLR expression construct expresses the respective wild type sequence or a mutant sequence comprising a deletion in the second leucine-rich repeat of the TLR.
(§2) HEK293 cells were grown in culture medium (DMEM supplemented with 10% FCS and 2 mM Glutamine). For transfection of cells in 10 cm dishes, cells were detached with Trypsin-EDTA, transfected with a mix of CMV-TLR7 or TLR8 plasmid (750 ng), NFκB-luc plasmid (375 ng) and a transfection reagent and incubated 24 h at 37° C. in a humidified 5% CO2 atmosphere. Transfected cells were then detached with Trypsin-EDTA, washed in PBS and re-suspended in medium to a density of 1.67×10^5 cells/mL. Thirty microliters of cells were then dispensed into each well in 384-well plates, where 10 μL of compound in 4% DMSO was already present. Following 6 h incubation at 37° C., 5% CO2, the luciferase activity was determined by adding 15 μl of STEADY LITE PLUS substrate (PERKIN ELMER) to each well and readout performed on a VIEWLUX ULTRAHTS microplate imager (PERKIN ELMER). Dose response curves were generated from measurements performed in quadruplicates. Lowest effective concentrations (LEC) values, defined as the concentration that induces an effect which is at least two-fold above the standard deviation of the assay, were determined for each compound.

human TLR8 = biological target: T2, human TLR8 (Homo sapiens, UniProt Q9NR97); experiment: TLR8 cellular NFκB-luc reporter assay; type: cell-based; design: unit not given here; conditions: lowest effective concentration; HEK293 cells transiently transfected with TLR8 and NFκB-luc, 6 h incubation
T2 construct: expressed in transfected cells; host or cells: HEK293
T2 sequence (Q9NR97 27-1041): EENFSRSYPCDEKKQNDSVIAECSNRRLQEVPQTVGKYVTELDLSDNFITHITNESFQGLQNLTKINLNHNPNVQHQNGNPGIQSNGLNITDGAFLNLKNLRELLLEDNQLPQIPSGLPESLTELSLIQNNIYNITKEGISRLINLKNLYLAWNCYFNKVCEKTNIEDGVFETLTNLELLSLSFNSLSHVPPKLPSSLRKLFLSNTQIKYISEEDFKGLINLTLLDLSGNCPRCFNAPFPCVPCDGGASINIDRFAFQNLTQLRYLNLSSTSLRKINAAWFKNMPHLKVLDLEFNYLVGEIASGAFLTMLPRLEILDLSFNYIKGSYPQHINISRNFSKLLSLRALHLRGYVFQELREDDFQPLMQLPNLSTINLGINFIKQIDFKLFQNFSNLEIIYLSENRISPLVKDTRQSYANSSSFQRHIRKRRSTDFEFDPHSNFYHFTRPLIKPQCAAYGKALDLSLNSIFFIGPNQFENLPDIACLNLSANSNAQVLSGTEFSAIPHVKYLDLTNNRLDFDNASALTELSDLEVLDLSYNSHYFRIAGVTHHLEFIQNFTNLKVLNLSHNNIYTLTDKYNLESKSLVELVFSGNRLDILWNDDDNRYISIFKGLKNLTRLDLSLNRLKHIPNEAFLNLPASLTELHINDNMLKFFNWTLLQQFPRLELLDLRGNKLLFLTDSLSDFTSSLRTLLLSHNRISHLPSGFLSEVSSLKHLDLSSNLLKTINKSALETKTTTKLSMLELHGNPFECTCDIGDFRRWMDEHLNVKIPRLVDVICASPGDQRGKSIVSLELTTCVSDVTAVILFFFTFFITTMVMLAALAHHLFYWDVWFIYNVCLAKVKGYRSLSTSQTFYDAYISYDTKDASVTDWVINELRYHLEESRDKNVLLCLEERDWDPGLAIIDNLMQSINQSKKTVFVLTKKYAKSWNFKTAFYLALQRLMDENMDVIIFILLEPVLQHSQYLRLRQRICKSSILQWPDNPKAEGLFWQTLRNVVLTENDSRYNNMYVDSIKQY
Experimental: as §1, §2

hTLR7-wt (LEC) (human TLR7)	hTLR8-wt (LEC) (human TLR8)	Structure (SMILES)
>100		CCCC[C@H](CO)Nc1nc(N)nc2cccc(C)c12 [Compound 114, (R)-2-((2-amino-5-methylquinazolin-4-yl)amino)hexan-1-ol]
>100	0.57	CCCC[C@H](CO)Nc1nc(N)nc2cc(C(=O)OC)ccc12 [Compound 116, Methyl (R)-2-amino-4-((1-hydroxyhexan-2-yl)amino)quinazoline-7-carboxylate]
>25	5.75	CCC[C@H](CO)Nc1nc(N)nc2c(C)cccc12 [Compound 104, (R)-2-((2-amino-8-methylquinazolin-4-yl)amino)pentan-1-ol]
>25	0.11	CCCC[C@H](CO)Nc1nc(N)nc2c(F)cccc12 [Compound 107, (R)-2-((2-amino-8-fluoroquinazolin-4-yl)amino)hexan-1-ol]
>25	0.46	CCCC[C@H](CO)Nc1nc(N)nc2c(C)cccc12 [Compound 105, (R)-2-((2-amino-8-methylquinazolin-4-yl)amino)hexan-1-ol]
>25	0.64	CCCC[C@H](COC(=O)C(C)C)Nc1nc(N)nc2c(C)cccc12 [Compound 109, (R)-2-((2-amino-8-methylquinazolin-4-yl)amino)hexyl isobutyrate]
>50	3.74	CCCC[C@H](CO)Nc1nc(N)nc2c(OC)cccc12 [Compound 115, (R)-2-((2-amino-8-methoxyquinazolin-4-yl)amino)hexan-1-ol]
>25	3.27	CCC[C@H](CO)Nc1nc(N)nc2c(F)cccc12 [Compound 108, (R)-2-((2-amino-8-fluoroquinazolin-4-yl)amino)pentan-1-ol]
>25	2.72	CCCC[C@H](CO)Nc1nc(N)nc2c(Cl)cccc12 [Compound 106, (R)-2-((2-amino-8-chloroquinazolin-4-yl)amino)hexan-1-ol]

Continued, compound first:

Structure (SMILES)	hTLR7-wt (LEC) (human TLR7)	hTLR8-wt (LEC) (human TLR8)
CC[C@H](C)[C@H](CO)Nc1nc(N)nc2cccc(F)c12 [Compound 119, (2R,3S)-2-((2-amino-5-fluoroquinazolin-4-yl)amino)-3-methylpentan-1-ol]	1.71	0.09
CCCC[C@H](CO)Nc1nc(N)nc2cc(F)ccc12 [Compound 111, (R)-2-((2-amino-7-fluoroquinazolin-4-yl)amino)hexan-1-ol]		0.04
CCCC[C@H](CO)Nc1nc(N)nc2cccc(F)c12 [Compound 100, (R)-2-((2-amino-5-fluoroquinazolin-4-yl)amino)hexan-1-ol]	27.7	0.07
CCCC[C@H](CO)Nc1nc(N)nc2cccc(Cl)c12 [Compound 113, (R)-2-((2-amino-5-chloroquinazolin-4-yl)amino)hexan-1-ol]	>100	
CCCC[C@H](CO)Nc1nc(N)nc2cccc(C3CC3)c12 [Compound 99, (R)-2-((2-amino-5-cyclopropylquinazolin-4-yl)amino)hexan-1-ol]	>100	0.35
CSCC[C@H](CO)Nc1nc(N)nc2cccc(F)c12 [Compound 118, (R)-2-((2-amino-5-fluoroquinazolin-4-yl)amino)-4-(methylthio)butan-1-ol]	>50	0.7
CCCC[C@H](CO)Nc1nc(N)nc2cccc(C(F)(F)F)c12 [Compound 101, (R)-2-((2-amino-5-(trifluoromethyl)quinazolin-4-yl)amino)hexan-1-ol]	>100	0.66
CCCC[C@H](CO)Nc1nc(N)nc2cc(C#N)ccc12 [Compound 102, (R)-2-amino-4-((1-hydroxyhexan-2-yl)amino)quinazoline-7-carbonitrile]	>100	0.14
CCCC[C@H](CO)Nc1nc(N)nc2cc(-c3nnco3)ccc12 [Compound 103, (R)-2-((2-amino-7-(1,3,4-oxadiazol-2-yl)quinazolin-4-yl)amino)hexan-1-ol]	>25	0.38
CCCC[C@H](CO)Nc1nc(N)nc2c(F)c(F)ccc12 [Compound 117, (R)-2-((2-amino-7,8-difluoroquinazolin-4-yl)amino)hexan-1-ol]	>100	0.41
